According to patent US9856240B2, “Compounds that modulate intracellular calcium” (CalciMedica, Inc., priority 2011, dated 2018):

Experiments:
[1] = tested on: store-operated calcium entry in RBL-2H3 cells; test: Fluorescence-based assay of store-operated calcium entry in RBL-2H3 cells; assay type: cell-based; conditions: Rattus norvegicus, thapsigargin, FLIPR Fluo-4, read-out: RBL-2H3 (IC50, μmol)
Protocol: B. Fluorescence-Based Assay of Store-Operated Calcium Entry in RBL-2H3 Cells.
RBL-2H3 cells are obtained from ATCC and maintained in complete medium with 10% FBS at 37° C./6% CO2.
The day prior to performing the assay, RBL-2H3 cells are plated in 50 μL of complete medium in a 384 well plate. Cells are grown at 37° C./6% CO2 overnight and grow to 50-60% confluence by the next day. On the assay day, 1.5 μM Fluo-4-AM dye (Invitrogen) in complete medium is added and incubated for 1 hour at RT. Cells are washed twice in Ca^2+-free HBSS buffer and 35 μL Ca^2+-free HBSS buffer is added to each well. 10 μL of a test compound prepared in a Ca^2+-free HBSS solution at 4.5× of the desired concentration is added to a well and incubated for 5 minutes at RT. 10 μL of thapsigargin prepared in a Ca^2+-free HBSS solution at 5.5× of the desired concentration (5.5 uM) is added to each well and incubated for an additional 25 minutes. The initial baseline fluorescence signal is measured with a FLIPR^384 (Molecular Devices) plate reader. 5 μL of 12× calcium in HBSS (12 mM) is added and changes in cellular fluorescence are measured with the FLIPR^384 plate reader. In each well, the change in the fluorescent signal as a function of time due to calcium entry into the cell is determined by calculating the difference between the fluorescent signal measured 7 seconds after calcium addition and the initial baseline fluorescence signal at time zero (t=0). This parameter is designated Upslope. The IC50 value is calculated as the concentration at which 50% of the Upslope is inhibited.

[2] = molecular target: T1, recombinant human STIM1 and Orai1 (HEK-293 cells) (Homo sapiens, UniProt Q96D31); test: Fluorescence-based assay of store-operated calcium entry in Orai1/STIM1 stable cells; assay type: cell-based; parameters: key to Orai1/STIM1 (IC50, μmol): A < 0.6 μmol; 0.6 μmol ≦ B ≦ 1.2 μmol; C > 1.2 μmol; — = no fit; conditions: for IC50: FLIPR fluo-4, read-out: Orai1/STIM1 (IC50, μmol); for Orai1/STIM1 (IC50, μmol): FLIPR fluo-4
T1 construct: expressed in transfected cells; host or cells: HEK-293 cells stably expressing both proteins
Protocol: A. Fluorescence-Based Assay of Store-Operated Calcium Entry in Orai1/STIM1 Stable Cells.
Cells stably expressing recombinant human STIM1 and Orai1 are generated by transfecting a human Orai1 expression plasmid (pcDNA3.1-Orai1-cmyc) into HEK-293 cells stably overexpressing human STIM1 (Roos et al. 2005 JCB 169(3): 435-445). Colonies of cells stably expressing both STIM1 and Orai1 proteins are selected and then subcloned by limiting dilution. Cells were cultured at 37° C./6% CO2 in complete medium with 10% FBS and appropriate selection markers.
The day prior to performing the assay Orai1/STIM1 stable cells are plated in 50 μL of complete medium at 90-95% confluence in a 384 well plate. Cells are grown at 37° C./6% CO2 overnight. On the day of the assay, 1.5 μM fluo-4-AM (Invitrogen) in complete medium is added to the cells, which are then incubated for 1 hour at RT. Cells are washed once in Ca^2+-free HBSS (Hank's buffered saline solution) and 35 μl of Ca^2+-free HBSS is added to each well. Test compounds are added to wells in a 10 μL Ca^2+-free HBSS solution, prepared at 4.5× the desired final concentration, and incubated for 30 minutes at RT. The initial baseline fluorescence signal is then measured with a FLIPR^384 (Molecular Devices) plate reader. Calcium entry is initiated by adding 5 μl of 10× CaCl2 (10 mM) in HBSS, and changes in cellular fluorescence are measured with the FLIPR^384 plate reader. In each well, the magnitude of the fluorescence signal as a result of calcium entry into the cell is determined by calculating the difference between the peak fluorescence signal measured after calcium addition and the initial baseline fluorescence signal (designated Peak-Basal). IC50 values are typically calculated as the concentration that inhibited 50% of the Peak-Basal signal (Table A).

T1 sequence (Q96D31 whole entry): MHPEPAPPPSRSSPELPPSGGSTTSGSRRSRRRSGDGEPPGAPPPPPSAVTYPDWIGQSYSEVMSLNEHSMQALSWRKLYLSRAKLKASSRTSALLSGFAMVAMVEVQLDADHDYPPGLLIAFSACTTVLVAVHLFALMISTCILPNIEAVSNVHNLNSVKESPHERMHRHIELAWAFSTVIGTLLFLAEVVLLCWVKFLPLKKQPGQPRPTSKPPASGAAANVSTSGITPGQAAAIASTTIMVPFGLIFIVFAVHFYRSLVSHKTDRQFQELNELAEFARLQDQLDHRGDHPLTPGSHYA

Row | IC50 [1] | IC50 [2] | Orai1/STIM1 (IC50, μmol) [2] | SMILES
1 | 0.6 to 1.2 µM | 0.6 to 1.2 µM |  | Cn1cccc1C(=O)Nc1ccc(-c2cc3c(cc2Cl)OC(F)(F)O3)cn1 [Example 1, N-(5-(6-chloro-2,2-difluorobenzo[d][1,3]dioxol-5-yl)pyridin-2-yl)-1-methyl-1H-pyrrole-2-carboxamide]
2 | > 1.2 µM | > 1.2 µM |  | Cc1nn(C)c(C(=O)Nc2ccc(-c3cc4c(cc3Cl)OC(F)(F)O4)cn2)c1Cl [Example 2, 4-chloro-N-(5-(6-chloro-2,2-difluorobenzo[d][1,3]dioxol-5-yl)pyridin-2-yl)-1,3-dimethyl-1H-pyrazole-5-carboxamide]
3 | < 0.6 µM |  | — | Cn1nc(C(F)(F)F)c(Cl)c1C(=O)Nc1ccc(-c2cc3c(cc2Cl)OC(F)(F)O3)cn1 [Example 3, 4-chloro-N-(5-(6-chloro-2,2-difluorobenzo[d][1,3]dioxol-5-yl)pyridin-2-yl)-1-methyl-3-(trifluoromethyl)-1H-pyrazole-5-carboxamide]
4 | > 1.2 µM |  | — | Cn1ncc(C(=O)Nc2ccc(-c3cc4c(cc3Cl)OC(F)(F)O4)cn2)c1C(F)(F)F [Example 4, N-(5-(6-chloro-2,2-difluorobenzo[d][1,3]dioxol-5-yl)pyridin-2-yl)-1-methyl-5-(trifluoromethyl)-1H-pyrazole-4-carboxamide]
5 | 0.6 to 1.2 µM |  | — | Cc1onc(C(=O)Nc2ccc(-c3cc4c(cc3Cl)OC(F)(F)O4)cn2)c1C [Example 5, N-(5-(6-chloro-2,2-difluorobenzo[d][1,3]dioxol-5-yl)pyridin-2-yl)-4,5-dimethylisoxazole-3-carboxamide]
6 | > 1.2 µM | > 1.2 µM |  | CCn1nc(C)cc1C(=O)Nc1ccc(-c2cc3c(cc2Cl)OC(F)(F)O3)cn1 [Example 6, N-(5-(6-chloro-2,2-difluorobenzo[d][1,3]dioxol-5-yl)pyridin-2-yl)-1-ethyl-3-methyl-1H-pyrazole-5-carboxamide]
7 | > 1.2 µM | 0.6 to 1.2 µM |  | Cc1cc(C(=O)Nc2ccc(-c3cc4c(cc3Cl)OC(F)(F)O4)cn2)n(C)n1 [Example 7, N-(5-(6-chloro-2,2-difluorobenzo[d][1,3]dioxol-5-yl)pyridin-2-yl)-1,3-dimethyl-1H-pyrazole-5-carboxamide]
8 | > 1.2 µM | > 1.2 µM |  | Cn1cc(Cl)c(C(=O)Nc2ccc(-c3cc4c(cc3Cl)OC(F)(F)O4)cn2)n1 [Example 8, 4-chloro-N-(5-(6-chloro-2,2-difluorobenzo[d][1,3]dioxol-5-yl)pyridin-2-yl)-1-methyl-1H-pyrazole-3-carboxamide]
9 | < 0.6 µM | 0.6 to 1.2 µM |  | Cn1ncc(Cl)c1C(=O)Nc1ccc(-c2cc3c(cc2Cl)OC(F)(F)O3)cn1 [Example 9, 4-chloro-N-(5-(6-chloro-2,2-difluorobenzo[d][1,3]dioxol-5-yl)pyridin-2-yl)-1-methyl-1H-pyrazole-5-carboxamide]
10 |  |  | — | Cc1oncc1C(=O)Nc1ccc(-c2cc3c(cc2Cl)OC(F)(F)O3)cn1 [Example 10, N-(5-(6-chloro-2,2-difluorobenzo[d][1,3]dioxol-5-yl)pyridin-2-yl)-5-methylisoxazole-4-carboxamide]
11 | < 0.6 µM | < 0.6 µM |  | Cc1noc(C)c1C(=O)Nc1ccc(-c2cc3c(cc2Cl)OC(F)(F)O3)cn1 [Example 11, N-(5-(6-chloro-2,2-difluorobenzo[d][1,3]dioxol-5-yl)pyridin-2-yl)-3,5-dimethylisoxazole-4-carboxamide]
12 | 0.6 to 1.2 µM | 0.6 to 1.2 µM |  | CCn1nccc1C(=O)Nc1ccc(-c2cc3c(cc2Cl)OC(F)(F)O3)cn1 [Example 12, N-(5-(6-chloro-2,2-difluorobenzo[d][1,3]dioxol-5-yl)pyridin-2-yl)-1-ethyl-1H-pyrazole-5-carboxamide]
13 | > 1.2 µM | 0.6 to 1.2 µM |  | O=C(Nc1ccc(-c2cc3c(cc2Cl)OC(F)(F)O3)cn1)c1ccnn1C(F)F [Example 13, N-(5-(6-chloro-2,2-difluorobenzo[d][1,3]dioxol-5-yl)pyridin-2-yl)-1-(difluoromethyl)-1H-pyrazole-5-carboxamide]
14 | < 0.6 µM | < 0.6 µM |  | CCc1nnsc1C(=O)Nc1ccc(-c2cc3c(cc2Cl)OC(F)(F)O3)cn1 [Example 14, N-(5-(6-chloro-2,2-difluorobenzo[d][1,3]dioxol-5-yl)pyridin-2-yl)-4-ethyl-1,2,3-thiadiazole-5-carboxamide]
15 | < 0.6 µM | < 0.6 µM |  | Cc1nscc1C(=O)Nc1ccc(-c2cc3c(cc2Cl)OC(F)(F)O3)cn1 [Example 15, N-(5-(6-chloro-2,2-difluorobenzo[d][1,3]dioxol-5-yl)pyridin-2-yl)-3-methylisothiazole-4-carboxamide]
16 | > 1.2 µM |  | — | O=C(Nc1ccc(-c2cc3c(cc2Cl)OC(F)(F)O3)cn1)c1nsc(Cl)c1Cl [Example 16, 4,5-dichloro-N-(5-(6-chloro-2,2-difluorobenzo[d][1,3]dioxol-5-yl)pyridin-2-yl)isothiazole-3-carboxamide]
17 | < 0.6 µM | > 1.2 µM |  | Cc1nc(C(F)(F)F)c(C(=O)Nc2ccc(-c3cc4c(cc3Cl)OC(F)(F)O4)cn2)s1 [Example 17, N-(5-(6-chloro-2,2-difluorobenzo[d][1,3]dioxol-5-yl)pyridin-2-yl)-2-methyl-4-(trifluoromethyl)thiazole-5-carboxamide]
18 |  |  | — | Cc1nc(C(=O)Nc2ccc(-c3cc4c(cc3Cl)OC(F)(F)O4)cn2)c(C(F)(F)F)o1 [Example 19, N-(5-(6-chloro-2,2-difluorobenzo[d][1,3]dioxol-5-yl)pyridin-2-yl)-2-methyl-5-(trifluoromethyl)oxazole-4-carboxamide]
19 |  | > 1.2 µM |  | Cc1nc(C)c(C(=O)Nc2ccc(-c3cc4c(cc3Cl)OC(F)(F)O4)cn2)o1 [Example 21, N-(5-(6-chloro-2,2-difluorobenzo[d][1,3]dioxol-5-yl)pyridin-2-yl)-2,4-dimethyloxazole-5-carboxamide]
20 |  |  | — | Cn1ncc(C(=O)Nc2cnc(-c3cc4c(cc3Cl)OC(F)(F)O4)cn2)c1C(F)(F)F [Example 22, N-(5-(6-chloro-2,2-difluorobenzo[d][1,3]dioxol-5-yl)pyrazin-2-yl)-1-methyl-5-(trifluoromethyl)-1H-pyrazole-4-carboxamide]
21 |  |  | — | Cc1nn(C)c(C(=O)Nc2cnc(-c3cc4c(cc3Cl)OC(F)(F)O4)cn2)c1Cl [Example 23, 4-chloro-N-(5-(6-chloro-2,2-difluorobenzo[d][1,3]dioxol-5-yl)pyrazin-2-yl)-1,3-dimethyl-1H-pyrazole-5-carboxamide]
22 | > 1.2 µM |  |  | CCn1nc(C)cc1C(=O)Nc1cnc(-c2cc3c(cc2Cl)OC(F)(F)O3)cn1 [Example 26]
23 |  |  | — | Cn1cc(Cl)c(C(=O)Nc2cnc(-c3cc4c(cc3Cl)OC(F)(F)O4)cn2)n1 [Example 28, 4-chloro-N-(5-(6-chloro-2,2-difluorobenzo[d][1,3]dioxol-5-yl)pyrazin-2-yl)-1-methyl-1H-pyrazole-3-carboxamide]
24 |  |  | — | Cc1oncc1C(=O)Nc1cnc(-c2cc3c(cc2Cl)OC(F)(F)O3)cn1 [Example 30, N-(5-(6-chloro-2,2-difluorobenzo[d][1,3]dioxol-5-yl)pyrazin-2-yl)-5-methylisoxazole-4-carboxamide]
25 |  |  | — | Cc1cc2c(cc1-c1cnc(NC(=O)c3c(Cl)c(C)nn3C)cn1)OC(F)(F)O2 [Example 36, 4-chloro-N-(5-(2,2-difluoro-6-methylbenzo[d][1,3]dioxol-5-yl)pyrazin-2-yl)-1,3-dimethyl-1H-pyrazole-5-carboxamide]
